Here are results for five compounds from the NIST ThermoML archive (doi:10.1021/je0498661).

For the series the following is noted: 101.33 kPa, Liquid, Hot wire method.

The structures appear in SMILES notation. ± gives the expanded uncertainty stated by the source.

With `C1CCSC1` [tetrahydrothiophene], the thermal conductivity by setting is: (273.15 K) 0.12 ± 0.003 W/m/K; (288.15 K) 0.117 ± 0.002 W/m/K; (303.15 K) 0.115 ± 0.002 W/m/K; (318.15 K) 0.112 ± 0.002 W/m/K; (333.15 K) 0.11 ± 0.002 W/m/K.
Consider `CC#N` [acetonitrile], for which the thermal conductivity was determined as 0.207 ± 0.004 W/m/K (273.15 K), 0.195 ± 0.004 W/m/K (293.15 K) and 0.183 ± 0.004 W/m/K (313.15 K).
On to `CCSCC` [3-thiapentane], for which the thermal conductivity is, setting by setting: (273.15 K) 0.145 ± 0.003 W/m/K; (293.15 K) 0.14 ± 0.003 W/m/K; (313.15 K) 0.137 ± 0.003 W/m/K; (333.15 K) 0.13 ± 0.003 W/m/K.
For `C1CCCNCC1` [azacycloheptane] the same measures were 0.141 ± 0.003 W/m/K, 0.137 ± 0.003 W/m/K, 0.131 ± 0.003 W/m/K and 0.126 ± 0.003 W/m/K.
For `CN(C)CCN(C)C` [N,N,N',N'-tetramethyl-1,2-diaminoethane], in that order: 0.154 ± 0.003 W/m/K, 0.15 ± 0.003 W/m/K, 0.144 ± 0.003 W/m/K and 0.135 ± 0.003 W/m/K.
